{"source": "paper PMC2784635", "about": "(Bioorganic & medicinal chemistry, 2008)", "key": {"[1]": {"target": "cytochrome bc1 complex (beef heart mitochondria, NADH oxidase) (Bos taurus, UniProt P00157+P13272)", "test": "beef heart mitochondrial NADH oxidase assay", "type": "biochemical", "conditions": "for IC50, NADH oxidase: beef heart mitochondria, Z-enamide analogues, Table 5"}, "plant pathogens": {"test_system": "plant pathogens", "test": "fungicidal activity on plants", "type": "in vivo"}, "[2]": {"test": "simulated sunlight photostability test, thin films on glass slides", "type": "physicochemical", "conditions": "for time for 50% of parent compound being lost / T50 glass slides: thin films on glass slides"}, "[3]": {"test_system": "electron transport chain at complex III", "conditions": "beef heart mitochondrial respiration assay; cited from earlier work"}, "several fungi": {"test_system": "several fungi", "conditions": "cited from earlier work"}, "[4]": {"test_system": "Plasmopara viticola (vine downy mildew)", "test": "glasshouse foliar spray test, vine downy mildew", "type": "in vivo"}}}
{"smiles": "C/C=C(C)/C=C/C=C/[C@H](OC)[C@@H](C)[C@@H](OC)[C@@H](C)CCc1oc2c(O)c(OC)cc(OC)c2c(=O)c1C", "note": "[Compound 2, stigmatellin, reference compound]", "values": [{"measurement": "activity in the NADH oxidase / beef heart mitochondrial respiration assay", "setting": "[1]", "result": "quite active"}, {"measurement": "fungicidal activity on plants", "setting": "plant pathogens", "result": "very little fungicidal activity"}]}
{"smiles": "COC(=O)CNC(=O)/C=C\\C/C=C\\NC(=O)/C=C(C)/C=C/[C@H](C)[C@H](OC)[C@H](C)[C@H](/C=C/c1ccccc1)OC", "note": "[Compound 8, crocacin A]", "values": [{"measurement": "time for 50% of parent compound being lost", "setting": "[2]", "result": 7, "unit": "min"}, {"measurement": "inhibition of the electron transport chain at complex III", "setting": "[3]", "result": "inhibited the electron transport chain at complex III"}, {"measurement": "inhibition of growth of fungi in vitro", "setting": "several fungi", "result": "inhibited the growth of several fungi in vitro"}]}
{"smiles": "CO[C@H]([C@H](C)[C@H](/C=C/c1ccccc1)OC)[C@@H](C)/C=C/C(C)=C/C(=O)N/C=C\\C/C=C\\C(=O)NCC(=O)O", "note": "[Compound 9, crocacin B]", "values": [{"measurement": "inhibition of the electron transport chain at complex III", "setting": "[3]", "result": "not to be active"}]}
{"smiles": "CO[C@H]([C@H](C)[C@H](/C=C/c1ccccc1)OC)[C@@H](C)/C=C/C(C)=C/C(N)=O", "note": "[Compound 10, crocacin C]", "values": [{"measurement": "inhibition of the electron transport chain at complex III", "setting": "[3]", "result": "not to be active"}]}
{"smiles": "COC(=O)CNC(=O)CCC/C=C\\NC(=O)/C=C(C)/C=C/[C@H](C)[C@H](OC)[C@H](C)[C@H](/C=C/c1ccccc1)OC", "note": "[Compound 11, crocacin D, reference compound]", "values": [{"measurement": "activity in the NADH oxidase / beef heart mitochondrial respiration assay", "setting": "[1]", "result": "slightly more active than crocacin A"}, {"measurement": "T50 glass slides", "setting": "[2]", "result": 0.6, "unit": "h"}, {"measurement": "time for 50% of parent compound being lost", "setting": "[2]", "result": 37, "unit": "min"}, {"measurement": "inhibition of the electron transport chain at complex III", "setting": "[3]", "result": "inhibited the electron transport chain at complex III"}, {"measurement": "inhibition of growth of fungi in vitro", "setting": "several fungi", "result": "inhibited the growth of several fungi in vitro"}]}
{"smiles": "CCCCCCCCCCCCC(=O)N/C=C\\CCCC(=O)NCC(=O)OC", "note": "[Compound 12]", "values": [{"measurement": "activity in the NADH oxidase / beef heart mitochondrial respiration assay", "setting": "[1]", "result": "very active"}, {"measurement": "photostability", "setting": "[2]", "result": "photostability was unexpectedly reduced"}, {"measurement": "T50 glass slides", "setting": "[2]", "result": 0.1, "unit": "h"}, {"measurement": "fungicidal activity on plants", "setting": "plant pathogens", "result": "no fungicidal activity"}]}
{"smiles": "CCCCCCOc1ccc(C(=O)N/C=C\\CCCC(=O)NCC(=O)OC)cc1", "note": "[Compound 13]", "values": [{"measurement": "activity in the NADH oxidase / beef heart mitochondrial respiration assay", "setting": "[1]", "result": "very good activity"}, {"measurement": "T50 glass slides", "setting": "[2]", "result": 5, "unit": "h"}, {"measurement": "fungicidal activity on plants", "setting": "plant pathogens", "result": "inactive as fungicides"}]}
{"smiles": "COC(=O)CNC(=O)CCC/C=C\\NC(=O)c1ccc(Cc2ccc(Br)cc2)cc1", "note": "[Compound 14]", "values": [{"measurement": "photostability", "setting": "[2]", "result": "greater photostability than the natural product"}, {"measurement": "T50 glass slides", "setting": "[2]", "result": 12, "unit": "h"}]}
{"smiles": "CCOc1ccc(Cc2ccc(C(=O)N/C=C\\CCCC(=O)NCC(=O)OC)cc2)cc1", "note": "[Compound 15]", "values": [{"measurement": "photostability", "setting": "[2]", "result": "greater photostability than the natural product"}, {"measurement": "T50 glass slides", "setting": "[2]", "result": 20, "unit": "h"}]}
{"smiles": "CCc1ccc(Cc2ccc(Cn3c(=O)oc4ccc(OCC(=O)OC)cc43)cc2)cc1", "note": "[Compound 18]", "values": [{"measurement": "activity on vine downy mildew on plants", "setting": "[4]", "result": "no activity"}]}
{"smiles": "COC(=O)COc1ccc2oc(=O)n(Cc3ccc(Cc4ccc(I)cc4)cc3)c2c1", "note": "[Compound 19]", "values": [{"measurement": "activity on vine downy mildew on plants", "setting": "[4]", "result": "no activity"}]}
{"smiles": "CCc1ccc(Cc2ccc(Cn3c(=O)oc4ccc(NCC(=O)OC)cc43)cc2)cc1", "note": "[Compound 21]", "values": [{"measurement": "IC50, NADH oxidase", "setting": "[1]", "result": "Inactive"}]}
{"smiles": "CCc1ccc(Oc2ccc(C(=O)N[C@H]3C[C@H]3CCC(=O)NCC(=O)OC)cc2)cc1", "note": "[Compound 24]", "values": [{"measurement": "activity in the NADH oxidase / beef heart mitochondrial respiration assay", "setting": "[1]", "result": "only very weakly active"}]}
{"smiles": "COC(=O)CNC(=O)CCCc1ccccc1NC(=O)CCCCCCCCCc1ccccc1", "note": "[Compound 25]", "values": [{"measurement": "activity in the NADH oxidase / beef heart mitochondrial respiration assay", "setting": "[1]", "result": "completely inactive"}, {"measurement": "IC50, NADH oxidase", "setting": "[1]", "result": "Inactive"}]}
